Assay results taken from article PMC6920875, “Dithiocarbamate as a Valuable Scaffold for the Inhibition of Metallo-β-Lactmases” (Biomolecules, 2019).
Where a name gives a salt, the structure may show the parent alone.

Legend:
[1] = molecular target: T1, L1 (Stenotrophomonas maltophilia, UniProt P52700); experiment: biochemical; conditions: read-out: IC50 against L1; substrate cefazolin 40 µM, 30 mM Tris pH 7.0, 25 °C, 5 min pre-incubation, inhibitor up to 200 μM
T1 construct: made in house; host or cells: E. coli BL21 (DE3), plasmid pET-26b-L1
Method: (§1) The dithiocarbamates, MβLs and substrates samples were prepared with 30 mM Tris, pH 7.0. […] Enzymes and inhibitors were pre-incubated for 5 min before adding substrate. […] The IC50 values were nonlinearly fitted by plotting the average percentage inhibition against inhibitor concentration. The inhibition modes of DC1 to ImiS, NDM-1 and L1 were assayed by generating Lineweaver–Burk plots, and Ki values were obtained by fitting initial velocity versus substrate concentration at each inhibitor concentration, using SigmaPlot 12.0 (Systat Software Inc., San Jose, CA, USA).
(§2) To evaluate the inhibitory activity of the dithiocarbamates, we over-expressed and purified MβLs NDM-1, VIM-2 and IMP-1 (B1), ImiS (B2), and L1 (B3) from three subclasses as previously reported. The inhibition experiments were performed with an Agilent UV8453 spectrometer. […] The concentrations of inhibitors were varied between 0 and 200 μM. The initial reaction rates were determined in the absence and presence of inhibitors in triplicate, and the generated average values were recorded.

[2] = molecular target: T2, NDM-1 (Klebsiella pneumoniae, UniProt C7C422); experiment: Time-dependence inhibition experiment, residual activity; type: biochemical; conditions: 13 nM NDM-1 incubated with inhibitor at its IC50 for 8 h
T2 construct: made in house; host or cells: E. coli BL21 (DE3), plasmid pET26b-NDM-1

[3] = molecular target: T3, VIM-2 (Escherichia coli, UniProt Q5U7L7); type: biochemical; conditions: read-out: IC50 against VIM-2; substrate cefazolin 40 µM, 30 mM Tris pH 7.0, 25 °C, 5 min pre-incubation, inhibitor up to 200 μM
T3 construct: made in house; host or cells: E. coli BL21 (DE3), plasmid pET24a-VIM-2
Method: as §1, §2

[4] = molecular target: T4, IMP-1 (Serratia marcescens, UniProt P52699); experiment: biochemical; conditions: read-out: IC50 against IMP-1; substrate cefazolin 40 µM, 30 mM Tris pH 7.0, 25 °C, 5 min pre-incubation, inhibitor up to 200 μM
T4 construct: made in house; host or cells: E. coli BL21 (DE3), plasmid pET26b-IMP-1
Method: as §1, §2

[5] = molecular target: T2, NDM-1; experiment: biochemical; conditions: read-out: IC50 against NDM-1; substrate cefazolin 40 µM, 30 mM Tris pH 7.0, 25 °C, 5 min pre-incubation, inhibitor up to 200 μM
Method: as §1, §2

[6] = molecular target: T5, ImiS (Aeromonas veronii, UniProt O31272); experiment: biochemical; design: species or system Aeromonas veronii bv. sobria; conditions: read-out: IC50 against ImiS; substrate imipenem 40 µM, 30 mM Tris pH 7.0, 25 °C, 5 min pre-incubation, inhibitor up to 200 μM
T5 construct: made in house; host or cells: E. coli BL21 (DE3), plasmid pET-26b-ImiS
Method: as §1, §2

[7] = system: E. coli BL21 expressing ImiS; experiment: MIC determination, broth micro-dilution, imipenem with inhibitor; type: cell-based; conditions: 64 μg/mL inhibitor
Method: (§3) The minimum inhibitory concentration (MIC) of antibiotics, both alone and in the presence of enzyme inhibitors, was determined using the broth micro-dilution method. Single colonies of E. coli BL21, containing plasmid, pET26b-NDM-1, pET26b-ImiS or pET26b-L1 in lysogeny broth agar plates, were transferred into 5 mL of Mueller–Hinton (MH) liquid medium. Strains grown in MH medium to OD600 = 0.45 were used as inocula, after an 84-fold dilution to 1 × 10^5 CFU/mL in MH medium. […] Compound DCs as inhibitors were dissolved in MH media, to prepare 1024, 512, 256, 128, 64 and 32 μg/mL stock solutions. The prepared solutions with different antibiotic concentrations (50 μL) were diluted to 100 μL, with different concentrations of inhibitor solution (50 μL), then 100 μL inoculum was added sequentially into the prepared solutions, to yield a quarter of the initial concentrations. The mixtures were incubated at 37 °C for 16 h. […] Each measurement was performed in duplicate.
(§4) The ability of the dithiocarbamate derivatives to inhibit MβLs, and to restore the antimicrobial activity of antibiotics, was investigated by determining the minimum inhibitory concentrations (MICs) of existing antibiotics in the presence and absence of DC1-10, as previously reported. E. coli BL21 (DE3) containing plasmids pET26b-NDM-1, pET26b-ImiS and pET26b-L1 were used to assess these inhibitors.

[8] = system: E. coli BL21 expressing L1; experiment: MIC determination, broth micro-dilution, cefazolin with inhibitor; type: cell-based; conditions: 64 μg/mL inhibitor
Method: as §3, §4

[9] = system: E. coli BL21 expressing NDM-1; experiment: as above; type: cell-based; conditions: E. coli BL21-NDM-1; 64 μg/mL inhibitor
Method: as §3, §4

[10] = system: mouse fibroblast cells (L-929); experiment: Cytotoxicity assay (MTT); type: cell-based; conditions: concentration as high as 250 μM, 48 h
Method: The cytotoxicity assays were performed to evaluate the toxicity of DC1, DC3, DC7 and DC9 in mouse fibroblast cells (L-929). The cells were seeded into 96-well plates at a cell density of 1.0 × 10^4 cells/well, in 100 μL of culture medium and maintained for 24 h. Then, the inhibitors with working concentrations (15.6, 31.25, 62.5, 125, 250, and 500 μM) were added to the 96-well plates and incubated for another 48 h. Three wells containing only cells were suspended in a mixture solution of 98 μL complete medium, as controls for cell viability without inhibitors. Three wells containing only the complete medium were used as blank controls. Following that, the medium was removed, and 100 μL of fresh culture medium and 10 μL MTT were added to each well. After incubation for 4 h, the trays were then vigorously shaken to solubilize the formed product, and the absorbance, at a wavelength of 490 nm, was read on a microplate reader and analyzed. All experiments were conducted in triplicate, and the data are expressed as mean ± standard deviation.
The potential toxicity of dthiocarbamates DC1, DC3, DC7 and DC9 as representatives was assayed using the mouse fibroblast cells (L929) treated with different concentrations of inhibitors (15.625, 31.25, 62.5, 125, 250 and 500 μM).

[11] = system: Cc1nnc(SCC2=C(C(=O)O)N3C(=O)[C@@H](NC(=O)Cn4cnnn4)[C@H]3SC2)s1; experiment: purified protein, by the assay type; conditions: other: test conditions: 30 mM Tris pH 7.0, 25 °C
[12] = system: C[C@@H](O)[C@H]1C(=O)N2C(C(=O)O)=C(SCCN=CN)C[C@H]12; experiment: purified protein, by the assay type; conditions: other: test conditions: 30 mM Tris pH 7.0, 25 °C

T1 sequence (P52700 34-290): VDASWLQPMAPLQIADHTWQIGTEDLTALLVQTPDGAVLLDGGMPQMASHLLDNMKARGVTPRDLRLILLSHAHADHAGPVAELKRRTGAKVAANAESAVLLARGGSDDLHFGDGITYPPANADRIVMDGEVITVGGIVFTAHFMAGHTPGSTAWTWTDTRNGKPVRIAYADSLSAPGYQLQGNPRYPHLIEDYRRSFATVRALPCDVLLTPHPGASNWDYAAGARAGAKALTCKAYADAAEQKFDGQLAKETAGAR
T4 sequence (P52699 19-246 limits assumed): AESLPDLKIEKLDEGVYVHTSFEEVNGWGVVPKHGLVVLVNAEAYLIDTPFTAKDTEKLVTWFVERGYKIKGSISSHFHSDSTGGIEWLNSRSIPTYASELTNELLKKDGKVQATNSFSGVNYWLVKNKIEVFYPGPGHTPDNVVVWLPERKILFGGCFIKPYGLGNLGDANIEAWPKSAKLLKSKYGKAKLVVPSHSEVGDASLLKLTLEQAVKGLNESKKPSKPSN
T5 sequence (O31272 28-255 limits assumed): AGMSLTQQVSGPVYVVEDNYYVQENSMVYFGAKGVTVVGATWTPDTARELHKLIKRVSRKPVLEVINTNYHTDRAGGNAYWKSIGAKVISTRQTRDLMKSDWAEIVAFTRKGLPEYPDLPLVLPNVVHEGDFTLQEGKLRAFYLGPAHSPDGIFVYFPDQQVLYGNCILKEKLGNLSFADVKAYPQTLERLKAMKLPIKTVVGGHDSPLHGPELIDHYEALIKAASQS
T2 sequence (C7C422 29-270 limits assumed): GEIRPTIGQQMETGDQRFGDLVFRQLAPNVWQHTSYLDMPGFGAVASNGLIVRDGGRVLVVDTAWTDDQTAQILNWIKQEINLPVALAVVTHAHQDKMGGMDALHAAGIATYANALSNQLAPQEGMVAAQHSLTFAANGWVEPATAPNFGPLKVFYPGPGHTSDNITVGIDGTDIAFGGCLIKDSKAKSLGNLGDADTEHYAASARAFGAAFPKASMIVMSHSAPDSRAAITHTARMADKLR

## O=C(NNC(=S)[S][K])c1ccccc1 [DC8]
[1]
  IC50: 25.81 ± 0.12 µM
[2]
  time dependence of NDM-1 inhibition (residual activity): no time-dependent inhibition

## O=C(NNC(=S)[S][K])c1ccc(O)cc1 [DC3]
[3]
  IC50: 82.8 ± 1.1 µM
[4]
  IC50: > 200 µM
[1]
  IC50: > 200 µM
[5]
  IC50: 67.1 ± 0.9 µM
[6]
  IC50: > 200 µM
[7]
  fold reduction in MIC of imipenem: no inhibitory effects
[8]
  fold reduction in MIC of cefazolin: no inhibitory effects
[9]
  fold reduction in MIC of cefazolin: no inhibitory effects
[10]
  survival rate of L929 mouse cells: higher than 80%
other
  melting point: 298 to 299 °C

## O=C(NNC(=S)[S][K])c1ccc(Cl)cc1 [DC5]
[3]
  IC50: > 200 µM
[4]
  IC50: > 200 µM
[1]
  IC50: > 200 µM
[5]
  IC50: 91.3 ± 1.7 µM
[6]
  IC50: 129 ± 2.1 µM
other
  melting point: > 300 °C

## NDM-1 (Klebsiella pneumoniae)
[11]
  Km: 15 µM

## O=C(Cc1ccccc1)NNC(=S)[S][K] [DC2]
[3]
  IC50: > 200 µM
[4]
  IC50: 166 ± 2.7 µM
[1]
  IC50: 86.8 ± 1.6 µM
[5]
  IC50: 5.64 ± 0.1 µM
[6]
  IC50: 2.5 ± 0.1 µM
other
  melting point: 150 to 151 °C

## O=C(NNC(=S)[S][K])c1cccc(Br)c1 [DC6]
[3]
  IC50: > 200 µM
[4]
  IC50: > 200 µM
[1]
  IC50: 154 ± 3.2 µM
[5]
  IC50: 15.2 ± 0.9 µM
[6]
  IC50: 2.56 ± 0.05 µM
other
  melting point: > 300 °C

## Nc1ccccc1C(=O)NNC(=S)[S][K] [DC4]
[3]
  IC50: 139 ± 2.05 µM
[4]
  IC50: 103 ± 1.45 µM
[1]
  IC50: 177 ± 2.8 µM
[5]
  IC50: 11.4 ± 0.4 µM
[6]
  IC50: 1.08 ± 0.05 µM
other
  melting point: 233 to 234 °C

## L1 (Stenotrophomonas maltophilia)
[11]
  Km: 60 µM

## VIM-2 (Escherichia coli)
[11]
  Km: 97 µM

## ImiS (Aeromonas veronii)
[12]
  Km: 52 µM

## O=C(NNC(=S)[S][K])C(O)c1ccccc1 (centres unmarked) [DC10, Potassium 2-(2-hydroxy-2-phenylacetyl)hydrazine-1-carbodithioate]
[2]
  time dependence of NDM-1 inhibition (residual activity): no time-dependent inhibition

## O=C(CCc1ccccc1)NNC(=S)[S][K] [DC9, Potassium 2-(3-phenylpropanoyl)hydrazine-1-carbodithioate]
[3]
  IC50: 115 ± 3.1 µM
[4]
  IC50: 86.2 ± 0.9 µM
[1]
  IC50: > 200 µM
[5]
  IC50: 62.7 ± 1.05 µM
[6]
  IC50: 156 ± 2.2 µM
[10]
  survival rate of L929 mouse cells: higher than 80%

## O=C(CCc1ccccc1)NNC(=S)[S][K] (as salt: potassium) [DC9, Potassium 2-(3-phenylpropanoyl)hydrazine-1-carbodithioate]
other
  melting point: 170 to 171 °C

## CC(C)(C)c1ccc(C(=O)NNC(=S)[S][K])cc1 [DC7]
[3]
  IC50: 63.5 ± 1.3 µM
[4]
  IC50: 96.4 ± 1.2 µM
[1]
  IC50: 191 ± 4 µM
[5]
  IC50: 0.52 ± 0.01 µM
[6]
  IC50: > 200 µM
[10]
  survival rate of L929 mouse cells: higher than 80%
other
  melting point: > 300 °C

## IMP-1 (Serratia marcescens)
[11]
  Km: 73 µM
